Read-outs that look alike come from different tables or passages of the source.
Experiments:
mushroom tyrosinase = experiment: Mushroom tyrosinase inhibition assay (dopachrome, 475 nm); type: biochemical; details: for IC50: mushroom tyrosinase
Protocol: The ability of the BMTTZD analogs to inhibit mushroom tyrosinase was evaluated in the presence of L-dopa and L-tyrosine as previously described.

B16F10 cells [1] = experiment: Cell cytotoxicity test (EZ-Cytox); type: cell-based, murine; details: 2.5–20 µM, 48 and 72 h
Protocol: Because analogs 1–3 and 5 exerted potent mushroom tyrosinase inhibitory activities, their effects on anti-melanogenic and cellular tyrosinase activities were evaluated in B16F10 murine cells. Prior to examining their cellular activity, their cell viabilities were investigated. Cell viability was evaluated at 48 and 72 h after treatment with five different concentrations of analogs.
The effect on B16F10 cytotoxicity was assessed following a previously described method. Cells (1 × 10^4 cells/well of a 96-well plate) were cultivated for 24 h with 5% CO2 at 37 °C. The cells were exposed to the BMTTZD analogs (test concentrations: 20, 10, 5, 2.5, and 0 µM) and cultivated with 5% CO2 at 37 °C for 72 h. An EZ-Cytox solution (10 µL; EZ-500, DoGenBio, Seoul, Republic of Korea) was exposed to each well, and the plate was cultivated for 2 h. Cell viability was calculated from the well absorbance measured at 450 nm utilizing a reader (VersaMax®).

[2] = target: T1, B16F10 cellular tyrosinase (Mus musculus, UniProt P11344); experiment: Cellular tyrosinase activity assay in B16F10 cells stimulated with IBMX plus α-MSH; type: cell-based, murine; details: 72 h
T1 construct: host or cells: B16F10 cells
T1 sequence (P11344 19-533): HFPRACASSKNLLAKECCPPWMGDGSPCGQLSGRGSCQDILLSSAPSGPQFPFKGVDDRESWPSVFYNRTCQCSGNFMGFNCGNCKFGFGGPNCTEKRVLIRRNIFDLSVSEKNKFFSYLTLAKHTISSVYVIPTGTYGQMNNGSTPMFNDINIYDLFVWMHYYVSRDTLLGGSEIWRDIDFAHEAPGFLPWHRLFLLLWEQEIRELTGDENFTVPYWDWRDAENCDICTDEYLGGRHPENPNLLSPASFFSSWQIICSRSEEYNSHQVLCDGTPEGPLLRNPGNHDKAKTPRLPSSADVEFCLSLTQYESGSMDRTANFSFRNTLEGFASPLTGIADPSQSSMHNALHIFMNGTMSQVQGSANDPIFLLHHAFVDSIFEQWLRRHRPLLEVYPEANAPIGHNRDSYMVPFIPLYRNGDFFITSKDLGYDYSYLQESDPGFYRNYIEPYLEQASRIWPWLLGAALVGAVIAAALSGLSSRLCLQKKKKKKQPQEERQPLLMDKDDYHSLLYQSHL
Protocol: Analogs 1, 3, and 5 were exposed to B16F10 cells at various concentrations (20, 10, 5, and 0 µM) before exposure to IBMX (200 µM; 3-isobutyl-1-methylxanthine) and α-MSH (1 µM; α-melanocyte-stimulating hormone). After incubation (72 h), B16F10 cellular tyrosinase activity was determined. […] It was examined whether the cellular tyrosinase inhibition of the BMTTZD analogs could influence B16F10 cellular melanin contents.
Effects on B16F10 tyrosinase inhibition were evaluated as previously described. A 6-well plate containing 1 × 10^5 B16F10 cells/well was cultivated for 23 h under conditions identical to those of the cell culture. […] The cells were cultivated for 72 h. After washing 2 times with PBS, the cells were lysed in a 100 µL lysis buffer, including phenylmethylsulfonyl fluoride (5 µL; 1 mM), Triton X-100 (5 µL; 1%), and phosphate buffer (90 µL; 50 mM (pH 6.5)). After 30 min incubation at −80 °C, the cell lysates were centrifuged at 4 °C for 30 min. The supernatants (80 µL) of the lysates were moved to each well of a microplate and mixed with 20 µL 10 mM L-dopa.

B16F10 cells [3] = experiment: Melanin content assay in B16F10 cells; type: cell-based, murine; details: 72 h
Protocol: We examined whether the ability of analogs 1, 3, and 5 to inhibit intracellular tyrosinase activity could affect intracellular melanin levels. B16F10 cells were utilized as mammalian cells. IBMX and α-MSH were used at 200 µM and 1 µM, respectively, to increase melanin biosynthesis. […] For the intracellular melanin content determination, the absorbance at 405 nm was evaluated after 72 h of incubation.
The effect of BMTTZD analogs on melanin biosynthesis was investigated following a previously described method. A 6-well microplate containing 1 × 10^5 B16F10 cells/well was cultivated for 23 h under conditions identical to those of the cell culture. […] After exposure to IBMX and α-MSH, B16F10 cells were cultivated for 72 h at 37 °C. The cells were rinsed 2 times with PBS, treated with 1N-NaOH aqueous solution (100 µL), and cultivated at 60 °C for 1 h. The lysates were moved to a microplate. At 405 nm, the well absorbance was measured utilizing a VersaMax® reader. Each experiment was carried out three times independently.

[4] = target: T1, B16F10 cellular tyrosinase; experiment: In situ cellular tyrosinase activity assay using L-dopa staining; type: cell-based, murine; details: 72 h
Protocol: Because tyrosinase plays a critical role in melanogenesis, in situ intracellular tyrosinase activity was measured. The in situ intracellular tyrosinase activity was evaluated in B16F10 cells following a previously reported procedure. Stimulators (α-MSH plus IBMX) were exposed to cells to raise tyrosinase activity levels, and analogs 1, 3, and 5 were treated at 20, 10, and 5 µM for 72 h. After fixation and permeabilization using paraformaldehyde and Triton X-100, the cells were stained with L-dopa.
A 24-well plate containing 1 × 10^3 B16F10 cells/well was cultivated for 24 h under conditions identical to those of the cell culture. […] The cells were then cultivated under conditions identical to those of the cell culture for 72 h. Cultivated cells were fixed for 40 min with paraformaldehyde (4%), washed 2 times with PBS, and permeabilized with Triton X-100 (0.1%) for 2 min. After washing 2 times with PBS, the cells in the 24-well plate were stained with a 2 mM L-dopa aqueous solution (500 µL/well) for 2 h at 37 °C. Staining was photographed and analyzed utilizing a camera connected to a microscope (Motic, Hong Kong).

[5] = DPPH radical scavenging activity assay; details: 500 µM
Protocol: First, the ability of BMTTZD analogs 1–8 to scavenge DPPH radicals was examined using L-ascorbic acid (vitamin C; positive control). All samples were tested at 500 µM.
The ability of the BMTTZD analogs to scavenge DPPH radicals was evaluated as previously reported. To each well of a 96-well plate containing analogs 1–8 (5 mM in […]; 20 µL) was added a DPPH solution (0.2 mM in methanol; 180 µL). The mixture was kept in a place without light for 30 min at 25°C to generate DPPH radicals. The well absorbance at 517 nm was measured utilizing a VersaMax® reader. The ability of the analogs to remove DPPH radicals was compared to that of vitamin C.

In the case of `CN1C(=O)/C(=C/c2ccc(O)cc2O)SC1=S` [Analog 3, (Z)-5-(2,4-Dihydroxybenzylidene)-3-methyl-2-thioxothiazolidin-4-one], the “tyrosinase inhibition, fold stronger than kojic acid” value (mushroom tyrosinase; substrate L-dopa) is reported as 22 fold, the IC50 (mushroom tyrosinase; substrate L-dopa, read-out: IC50 (Mean ± SEM, µM) L-Dopa) is reported as 1.12 ± 0.06 µM and the “tyrosinase inhibition, times stronger than kojic acid” value (mushroom tyrosinase; substrate L-tyrosine) is reported as 220 times. The IC50 (mushroom tyrosinase; substrate L-tyrosine, read-out: IC50 (Mean ± SEM, µM) L-Tyrosine) was 0.08 ± 0.02 µM, the “cytotoxicity (cell viability)” value (B16F10 cells [1]) was “did not exhibit cytotoxicity at ≤20 µM” and the “effect on stimulator-induced cellular tyrosinase activity” value ([2]; 5, 10, 20 µM, IBMX plus α-MSH) was “concentration-dependently and significantly reduced”. For the same compound, the “cellular tyrosinase inhibition compared with kojic acid (20 µM)” value ([2]; analog at 10 µM) was “slightly more strongly than kojic acid”, the “cellular tyrosinase inhibition compared with kojic acid (20 µM)” value ([2]; analog at highest concentration tested (20 µM)) was “stronger inhibitory effects than kojic acid” and the “decrease of intracellular melanin contents” value (B16F10 cells [3]; 20 µM, IBMX plus α-MSH (raised melanin 4.4-fold)) was 2.0 fold. For the same compound, the “effect on intracellular melanin contents enhanced by IBMX plus α-MSH” value (B16F10 cells [3]; 5, 10, 20 µM) was “significantly reduced the melanin contents”, the “in situ intracellular tyrosinase inhibition compared with kojic acid” value ([4]; 20 µM) was “tyrosinase inhibition stronger than did kojic acid” and the “effect on stimulator-raised in situ intracellular tyrosinase activity (L-dopa staining)” value ([4]; analogs 5, 10, 20 µM, kojic acid 20 µM) was “concentration-dependently reduced the stimulator-enhanced intracellular tyrosinase inhibition”. For the same compound, the “DPPH radical scavenging activity” value [5] was 82%.
